Source: US20220016251A1, “LYMPHATIC MEDIATED TRANSPORT-BASED TRIGLYCERIDE PRODRUG, AND PREPARATION METHOD THEREFOR” (SHENYANG PHARMACEUTICAL UNIVERSITY, priority 2019, published 2022)
≈ marks a conversion by molar mass, not a printed value. Read-outs that look alike come from different tables or passages of the source.

Legend:
[1] = In vivo intestinal perfusion in rats
Description: The intestinal permeability of a docetaxel-triglyceride prodrug is investigated by in vivo intestinal perfusion in rats. […] In order to investigate the effect of intestinal pancreatic lipase digestion on the absorption of the prodrug, a pancreatic lipase inhibitor orlistat is administrated half an hour in advance.

in vivo = assay: in vivo
Protocol: Taking SD rats as a model, a docetaxel-triglyceride prodrug emulsion and a docetaxel solution are orally administered; a plasma concentration of a parent drug is measured; and a drug-time curve is drawn and corresponding pharmacokinetic parameters are calculated respectively based on the measured concentration (Table 2). In order to calculate the absolute bioavailability, a docetaxel solution is administered intravenously, and the content of docetaxel in the plasma is measured.
In addition, in order to investigate whether the docetaxel-triglyceride prodrug is transported through the lymphatics, one hour before oral administration of the DTX-S-S-TG and the docetaxel solution, […] is administered intraperitoneally to inhibit the release of chylomicrons. The effect of lymphatic transport on the absorption of the prodrug is investigated.

4T1 cells = assay: cells; assay type: cell-based; conditions: Mus musculus
Description: (§1) In order to investigate the tumor reduction-sensitive release of DTX-S-S-TG, 4T1 cells and KB cells are used as models to investigate the cytotoxicity of DTX-5C-TG, a DTX-S-S-TG emulsion and a docetaxel solution. […] Due to a reduction-sensitive dithio linking bridge, DTX-S-S-TG has higher drug release efficiency than DTX-5C-TG, which is linked by insensitive ester bonds. As a result, the cytotoxicity of DTX-S-S-TG is stronger than that of DTX-5C-TG. Meanwhile, due to the slow release of a sensitive prodrug, DTX-S-S-TG has lower cytotoxicity than the docetaxel solution.

KB cells = assay: cells; assay type: cell-based; conditions: Homo sapiens
Description: as §1

4T1 tumor = assay type: in vivo; conditions: oral, 4T1 tumor-bearing Balb/c mice
Description: It reminds us that a good pharmacodynamic result not only requires a significant pharmacokinetic result, but also that a specific release at a tumor site is very important.

[2] = mouse, in vivo
Description: For 5 consecutive days, normal Balb/c mice are orally administered with the docetaxel-triglyceride prodrug emulsion synthesized in Example 4, and docetaxel solution, and intravenously injected with a docetaxel solution, and a normal saline group is used as control. The gastrointestinal toxicity is then investigated.

pancreatic lipase = assay: Digestion in bile-pancreatic juice simulated intestinal juice; assay type: in vitro ADME; conditions: 37° C.
Protocol: (§2) Emulsions prepared in Example 5 are incubated in simulated gastric juice, bile-pancreatic juice simulated intestinal juice, and lipoprotein lipase-containing plasma at 37° C., respectively; and samples are taken at predetermined time points to investigate the physical stability of the prodrug emulsion and the chemical stability of the prodrug in different media.

[3] = Stability in lipoprotein lipase-containing plasma; assay type: in vitro ADME; conditions: plasma added with lipoprotein lipase, after continuous incubation
Protocol: as §2

Compound | effect of pancreatic lipase inhibitor orlistat on absorption ([1]; rat, in vivo) | Fabs (in vivo; SD, rat, in vivo) [%] | AUC(0-t) (in vivo; SD, rat, in vivo, po) [ng·h/mL] | Cmax (in vivo; SD, rat, in vivo, po) [ng/mL] | Frel (in vivo; SD, rat, in vivo, po) [%] | Tmax (in vivo; SD, rat, in vivo, po) [h] | half-life (in vivo; SD, rat, in vivo, po) [h] | effect of cyclophosphamide (lymphatic suppression) on oral absorption / AUC (in vivo; rat, in vivo) | IC50 (4T1 cells; 48 h, read-out: IC50 4T1 48 h) [ng/mL] | IC50 (4T1 cells; 72 h, read-out: IC50 4T1 72 h) [ng/mL] | IC50 (KB cells; 48 h, read-out: IC50 KB 48 h) [ng/mL] | IC50 (KB cells; 72 h, read-out: IC50 KB 72 h) [ng/mL] | anti-tumor effect (4T1 tumor) | gastrointestinal toxicity (injury to intestinal segments) ([2]; iv) | gastrointestinal toxicity (injury to intestinal segments) ([2]; po) | degradation into docetaxel-monoglyceride prodrugs in intestinal juice (pancreatic lipase) | release of docetaxel parent drug in plasma [3] | permeability coefficient Ka, increase compared with docetaxel solution ([1]; in vivo intestinal perfusion in rats) [times] | blood concentration (in vivo; oral, SD rats) | oral bioavailability improved versus docetaxel (in vivo; rat, in vivo, po)
CC(=O)O[C@@]12CO[C@@H]1C[C@H](O)[C@@]1(C)C(=O)[C@H](O)C3=C(C)[C@@H](OC(=O)[C@H](O)[C@@H](NC(=O)OC(C)(C)C)c4ccccc4)C[C@@](O)([C@@H](OC(=O)c4ccccc4)[C@H]21)C3(C)C [DTX Solution, docetaxel] | no significant effect | 9.4 | 168 ± 125 | 21 ± 6.8 | 100 | 0.4 ± 0.5 | 11.8 ± 8.4 | no significant difference in AUC | 16.6 (≈ 20.5 nM) | 5.9 (≈ 7.3 nM) | 4.9 (≈ 6.07 nM) | 1.3 (≈ 1.61 nM) | almost no anti-tumor effect | injury to respective intestinal segments | slight injury to the jejunum |  |  |  |  | 
CCCCCCCCCCCCCCCC(=O)OCC(COC(=O)CCCCCCCCCCCCCCC)OC(=O)C(CCC(=O)O[C@@H](C(=O)O[C@H]1C[C@@]2(O)[C@@H](OC(=O)c3ccccc3)[C@@H]3[C@]4(OC(C)=O)CO[C@@H]4C[C@H](O)[C@@]3(C)C(=O)[C@H](O)C(=C1C)C2(C)C)[C@@H](NC(=O)OC(C)(C)C)c1ccccc1)OC(=O)C(C)(C)C (some centres unmarked) [DTX-5C(Piv)-TG, Docetaxel-C5(Piv)-Triglyceride Prodrug] |  |  |  |  |  |  |  |  |  |  |  |  |  |  |  | relatively slow degradation rate | hardly releases the docetaxel parent drug | 1.15 | lower than a detection limit | 
Docetaxel-C5(Et)-Triglyceride Prodrug [DTX-5C(Et)-TG] |  |  |  |  |  |  |  |  |  |  |  |  | certain anti-tumor effect |  |  | relatively slow degradation rate | release the drug slowly |  |  | 1.05-4.71 times
